Key:
[1] = Octanol-buffer partition coefficient, log D of the compound at pH 7.4 after 30 mins by shake-flask method; assay type: physicochemical
[2] = Fraction unbound in rat plasma by equilibrium dialysis technique; assay type: ADME, cell-free
[3] = Clearance in rat hepatocytes measured per 10^6 cells; assay type: ADME, cell-based, Hepatocyte; conditions: read-out: CLH
[4] = Clearance in rat; assay type: ADME, organism-based; conditions: in vivo
in vivo = conditions: rat
[5] = Apparent permeability from apical to basolateral side in human Caco2 cells; assay type: ADME, cell-based; conditions: Caco-2
[6] = Drug metabolism in rat hepatocytes assessed as ratio of glucuronidated to oxidized compound level by LC-MS/MS analysis; assay type: ADME, cell-based, Hepatocyte
[7] = Drug metabolism in dog hepatocytes assessed as ratio of glucuronidated to oxidized compound level by LC-MS/MS analysis; assay type: ADME, cell-based, Canis lupus familiaris, Hepatocyte
[8] = Drug metabolism in human hepatocytes assessed as ratio of glucuronidated to oxidized compound level by LC-MS/MS analysis; assay type: ADME, cell-based, Hepatocyte
[9] = Drug excretion in bile duct cannulated rat urine assessed as compound remaining by HPLC analysis; assay type: ADME, tissue-based; conditions: read-out: Stability
[10] = Drug excretion in bile duct cannulated rat bile assessed as ratio of glucuronidated to oxidized compound level by HPLC analysis; assay type: ADME, tissue-based; conditions: in vivo
[11] = Drug excretion in bile duct cannulated rat urine assessed as ratio of glucuronidated to oxidized compound level by HPLC analysis; assay type: ADME; conditions: in vivo
[12] = Inhibition of N-terminal 6-His-tagged dog full length 11beta-HSD1 assessed as conversion of cortisone to cortisol after 25 mins by HTRF assay; set-up: species or system Canis lupus familiaris
[13] = Inhibition of N-terminal 6-His-tagged cynomolgus monkey full length 11beta-HSD1 assessed as conversion of cortisone to cortisol after 25 mins by HTRF assay; set-up: species or system Macaca fascicularis

Structure (SMILES) | logD at 0.5 h [1] | fraction unbound [2] | hepatocyte CLint [3] [µL/min/1e6 cells] | clearance [4] [mL/min/kg] | bioavailability (in vivo) [%] | Papp A→B [5] [×10⁻⁶ cm/s] | Ratio [6] | Ratio [7] | Ratio [8] | dose excreted [9] [%] | Ratio [10] | Ratio [11] | IC50 [12] [µM] | IC50 [13] [µM]
CCCSc1nc(N2CCCC(C(C)(C)C(=O)O)C2)ccc1C(=O)NC1CCCCC1 (configuration not stated) | 3.3 | 0.004 | 22 | 9 | 84 | – | – | – | – | – | – | – | – | –
CCCSc1nc(N2CCC(C(=O)O)C2)ccc1C(=O)NC1CCCCC1 (configuration not stated) | 1.1 | 0.012 | 3 | 3 | 52 | – | – | – | – | – | – | – | – | –
CCCSc1nc(N2C[C@@H]3[C@H](C2)[C@H]3C(=O)O)ccc1C(=O)N[C@H]1C2CC3CC1C[C@](O)(C3)C2 | 0.8 | 0.108 | < 2 | 42 | 48 | – | – | – | – | – | – | – | – | –
CCCSc1nc(N2CC[C@H](CC(=O)O)C2)ccc1C(=O)NC1CCCCC1 | 1.7 | 0.01 | < 2 | 2 | 96 | – | – | – | – | – | – | – | – | –
CCCSc1nc(N2C[C@@H]3[C@H](C2)[C@H]3C(=O)O)ccc1C(=O)NC1CCCCC1 | 1.8 | 0.025 | < 2 | 2 | 80 | – | – | – | – | – | – | – | – | –
CCCSc1nc(N2CCCC(C3(C(=O)O)CC3)C2)ccc1C(=O)NC1CCCCC1 (configuration not stated) | 3.5 | 0.002 | 15 | 8 | 71 | – | – | – | – | – | – | – | – | –
O=C(O)[C@H]1[C@@H]2CN(c3ccc(C(=O)N4CCC(c5cccnc5)C4)c(SC4CCCC4)n3)C[C@@H]21 (some centres not stated) | 1.2 | 0.034 | 20 | 18 | 3 | 2 | – | – | – | – | – | – | – | –
O=C(N[C@H]1C2CC3CC1C[C@](O)(C3)C2)c1ccc(N2C[C@@H]3[C@H](C2)[C@H]3C(=O)O)nc1SC1CCCC1 | 1.5 | 0.04 | 4 | 43 | 57 | – | – | – | – | – | – | – | – | –
CCCSc1nc(N2CCC[C@@H](CC(=O)NS(C)(=O)=O)C2)ccc1C(=O)NC1CCCCC1 | 1.6 | 0.017 | 38 | 35 | 5 | – | – | – | – | – | – | – | – | –
O=C(N[C@H]1C2CC3CC1C[C@](OC(F)F)(C3)C2)c1ccc(N2C[C@@H]3[C@H](C2)[C@H]3C(=O)O)nc1SC1CCCC1 | 3.4 | 0.005 | 7 | 9 | 94 | – | – | – | – | – | – | – | – | –
CCCSc1nc(N2CCC[C@@H](Cc3nnn[nH]3)C2)ccc1C(=O)NC1CCCCC1 | 2.4 | 0.006 | 9 | 31 | 21 | – | – | – | – | – | – | – | – | –
CCCSc1nc(N2CCC[C@@H](CC(=O)O)C2)ccc1C(=O)NC1CCCCC1 [AZD-4017] | – | 0.018 | < 2 | – | 66 | – | 2.1 | 4.1 | 6 | 4 | 7.5 | 2.4 | 3.77 | 0.029

Source: ChEMBL document CHEMBL3217743, “Reduction of acyl glucuronidation in a series of acidic 11-hydroxysteroid dehydrogenase type 1 (11-HSD1) inhibitors: the discovery of AZD6925” (Medchemcomm, 2012)
